Assay in all cases: Antibacterial activity in vitro, MIC by broth microdilution
(In broth dilution the organism is exposed to a series of concentrations in liquid medium.)

Assay [1] deals with S. pneumoniae Stpn_280-962 Pen S. The assay is classed as cell-based, Streptococcus pneumoniae. To be noted: Table 3, Strain ID G: S. pneumoniae Stpn_280-962 Pen S. The essentials:
(§1)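 MIC = lowest drug concentration with no visible growth. Read after 18-24 h at 35° C. in 2-fold dilution series; inoculum 3×10^5–7×10^5 CFU/mL in CAMHB, supplemented with 2-5% lysed horse blood and incubated in 5-10% CO2 for pneumococci.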

Assay [2] concerns S. pneumoniae Stpn_297-749 Pen R. The assay is classed as cell-based, Streptococcus pneumoniae. The settings on record: Table 3, Strain ID F: S. pneumoniae Stpn_297-749 Pen R. In outline: as §1
The subject of assay [3] is S. pneumoniae Stpn_Mef 5654. The assay is classed as cell-based, Streptococcus pneumoniae. The settings on record: Table 3, Strain ID J: S. pneumoniae Stpn_Mef 5654; unit assumed. The essentials: as §1
Assay [4] concerns S. pneumoniae Stpn_Erm 6849. In kind it is cell-based, Streptococcus pneumoniae. To be noted: Table 3, Strain ID H: S. pneumoniae Stpn_Erm 6849; unit assumed. The essentials: as §1
The next assay deals with S. pneumoniae Stpn_49619. The assay is classed as cell-based, Streptococcus pneumoniae. To be noted: Table 3, Strain ID E: S. pneumoniae Stpn_49619. In outline: as §1
Assay [5] deals with S. pneumoniae Stpn_Mef S 3427. The assay is classed as cell-based, Streptococcus pneumoniae. The settings on record: Table 3, Strain ID K: S. pneumoniae Stpn_Mef S 3427. The essentials: as §1
Assay [6] relates to S. pneumoniae Stpn_Erm S 4297. In kind it is cell-based, Streptococcus pneumoniae. The settings on record: Table 3, Strain ID I: S. pneumoniae Stpn_Erm S 4297; unit assumed. In outline:
as §1

The next assay deals with E. faecalis Enfa_29212. The assay is classed as cell-based. The settings on record: Table 3, Strain ID C: E. faecalis Enfa_29212; unit assumed. In outline: as §1
The test system of a further assay is S. pyogenes Stpy_8668. The assay is classed as cell-based. To be noted: Table 3, Strain ID D: S. pyogenes Stpy_8668. In outline:
as §1

In assay [7] the test system is S. epidermidis Step_f50654 Pen S. In kind it is cell-based. To be noted: Table 3, Strain ID B: S. epidermidis Step_f50654 Pen S; unit assumed. The essentials: as §1
Assay [8] has as its system S. epidermidis Step_14990. In kind it is cell-based. To be noted: Table 3, Strain ID A: S. epidermidis Step_14990; unit assumed. The essentials:
as §1

The subject of another assay is E. coli Esco_25922. The assay is classed as cell-based. The settings on record: Table 3, Strain ID M: E. coli Esco_25922; unit assumed. The essentials: as §1
The next assay has as its system H. influenzae Hain_49247. In kind it is cell-based, Haemophilus influenzae. The settings on record: Table 3, Strain ID L: H. influenzae Hain_49247; unit assumed. The essentials:
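Visible-growth inhibition defined the MIC, obtained by NCCLS broth microdilution at 35° C. over 18-24 hours with a final inoculum of 3×10^5–7×10^5 CFU/mL.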

In brackets after ≈: the same amount, converted by molar mass. A value given as a limit tells only on which side of the number the result lay.

Regarding `CC[C@H]1OC(=O)[C@H](C)C(=O)[C@H](C)[C@@H](O[C@@H]2O[C@H](C)C[C@H](N(C)C)[C@H]2O)[C@@](C)(OC)C[C@@H](C)C(=O)[C@H](C)[C@@H]2[C@@H]1OC(=O)N2CCCCn1ccc2ccccc21` [Compound 4717], the MIC entry in [1] was “≦0.5”; in assay [2], “≦0.5”; in [3], 0.2 µg/mL (≈ 0.26 µM); in assay [4] it was 6.25 µg/mL (≈ 8.12 µM); against S. pneumoniae Stpn_49619 it was “≦0.5”; in assay [5] it was “≦0.05”. Besides, the MIC was 0.4 µg/mL (≈ 0.519 µM) in assay [6]; 0.1 µg/mL (≈ 0.13 µM) with E. faecalis Enfa_29212; “≦0.5” in the assay on S. pyogenes Stpy_8668; 0.4 µg/mL (≈ 0.519 µM) in assay [7]; 0.2 µg/mL (≈ 0.26 µM) in assay [8]; greater than 50 µg/mL with E. coli Esco_25922. In the assay with H. influenzae Hain_49247, the MIC came out at 6.25 µg/mL (≈ 8.12 µM).

For the origin of these results see patent US6756359B2, “C12 modified erythromycin macrolides and ketolides having antibacterial activity” (Chiron Corporation, priority 2001, dated 2004).
